Results taken from patent US9340538B2, “Dihydropyrimidine compounds and their application in pharmaceuticals” (SUNSHINE LAKE PHARMA CO., LTD., priority 2013, dated 2016).

system: HBV; assay: In-vitro anti-HBV activity in stable HBV-producing cell line (HepG2.2.15), HBV DNA in culture fluid by qPCR; type: cell-based; settings: Hepatitis B virus, 168 h; 500 nmol final concentration, HepG2.2.15 cells, HBV DNA in culture media on day 7 post seeding, vs DMSO control; read-out: HBV (% Inh.) (500 nmol)
Method: In-Vitro Anti-HBV Activity of Compounds in Stable HBV-Producing Cell Line (HepG2.2.15)
HBV DNA contents in cell culture fluid were detected by the qPCR-based assay and percents of HBV inhibition by compounds (% Inh) were calculated. Specific procedures are as follows:
HepG2.2.15 cells were seeded into each well of 96-well plates, 40,000 cells per well. Cells were treated with cell culture medium containing compounds 24 hours after cell seeding. Each compound to detected percent inhibition was in duplicate and the final concentration of each compound was 500 nmol in each well. The compound-containing mediums were refreshed on day 4 post cell seeding. Culture media were collected from the HepG2.2.15 plates on day 7 post cell seeding followed by HBV DNA extraction.
HBV DNA extraction: using QIAamp 96 DNA Blood Kit (QIAGEN 51161).
PCR for quantification: PCR mix was prepared according to PCR system; PCR mix was dispensed to 384-well optical reaction plates (special for quantification); The standard diluted proportionally was added; The sample was added; The plates were sealed with optical adhesive film; PCR system was performed according to programs.
Percent of HBV inhibition of DNA replication by compound was calculated using the following equation: % Inh.=[1-HBV DNA quantity of sample/HBV DNA quantity of DMSO control]*100. II. Assay Results

SMILES	inhibition at 0.5 µM [%]
CCOC(=O)C1=C(CN2CCO[C@H](COC(=O)C(N)C(C)C)C2)NC(c2nccs2)=NC1c1ccc(F)cc1Br (stereo in doubt) [Example 126, Ethyl 6-(((S)-2-((((S)-2-amino-3-methylbutanoyl)oxy)methyl)morpholino)methyl)-4-(2-bromo-4-fluorophenyl)-2-(thiazol-2-yl)-1,4-dihydropyrimidine-5-carboxylate]	94.7
CCOC(=O)C1=C(CN2CCOCC2C(=O)O)NC(c2nccs2)=NC1c1ccccc1C(F)(F)F (centres unmarked) [Example 1, 4-((5-(ethoxycarbonyl)-2-(thiazol-2-yl)-6-(2-(trifluoromethyl)phenyl)-3,6-dihydropyrimidin-4-yl)methyl)morpholine-3-carboxylic acid]	75.8
CCOC(=O)C1=C(CN2CCOCC2C(=O)O)NC(c2nccs2)=NC1c1ccccc1[N+](=O)[O-] (centres unmarked) [Example 2, 4-((5-(ethoxycarbonyl)-6-(2-nitrophenyl)-2-(thiazol-2-yl)-3,6-dihydropyrimidin-4-yl)methyl)morpholine-3-carboxylic acid]	31.3
CCOC(=O)C1=C(CN2CCOCC2C(=O)O)NC(c2nccs2)=NC1c1ccc(F)cc1Br (centres unmarked) [Example 3, 4-((6-(2-bromo-4-fluorophenyl)-5-(ethoxycarbonyl)-2-(thiazol-2-yl)-3,6-dihydropyrimidin-4-yl)methyl)morpholine-3-carboxylic acid]	84.5
CCOC(=O)C1=C(CN2CCOCC2C(=O)O)NC(c2nccs2)=NC1c1ccc(F)cc1Cl (centres unmarked) [Example 4, 4-((6-(2-chloro-4-fluorophenyl)-5-(ethoxycarbonyl)-2-(thiazol-2-yl)-3,6-dihydropyrimidin-4-yl)methyl)morpholine-3-carboxylic acid]	90
COC(=O)C1=C(CN2CCOCC2C(=O)O)NC(c2nccs2)=NC1c1ccc(F)cc1Br (centres unmarked) [Example 6, 4-((6-(2-bromo-4-fluorophenyl)-5-(methoxycarbonyl)-2-(thiazol-2-yl)-3,6-dihydropyrimidin-4-yl)methyl)morpholine-3-carboxylic acid]	99.9
CCOC(=O)C1=C(CN2CCOC(C(=O)O)C2)NC(c2nccs2)=NC1c1ccc(F)cc1Cl (centres unmarked) [Example 10, 4-((6-(2-chloro-4-fluorophenyl)-5-(ethoxycarbonyl)-2-(thiazol-2-yl)-3,6-dihydropyrimidin-4-yl)methyl)morpholine-2-carboxylic acid]	89.7
CCOC(=O)C1=C(CN2CCOC(C(=O)O)C2)NC(c2nccs2)=NC1c1ccc(Cl)cc1Cl (centres unmarked) [Example 11, 4-((6-(2,4-dichlorophenyl)-5-(ethoxycarbonyl)-2-(thiazol-2-yl)-3,6-dihydropyrimidin-4-yl)methyl)morpholine-2-carboxylic acid]	95.6
COC(=O)C1=C(CN2CCOC(C(=O)O)C2)NC(c2nccs2)=NC1c1ccc(F)cc1Br (centres unmarked) [Example 12, 4-((6-(2-bromo-4-fluorophenyl)-5-(methoxycarbonyl)-2-(thiazol-2-yl)-3,6-dihydropyrimidin-4-yl)methyl)morpholine-2-carboxylic acid]	53.8
COC(=O)C1=C(CN2CCOC(C(=O)O)C2)NC(c2nccs2)=NC1c1ccc(F)cc1Cl (centres unmarked) [Example 13, 4-((6-(2-chloro-4-fluorophenyl)-5-(methoxycarbonyl)-2-(thiazol-2-yl)-3,6-dihydropyrimidin-4-yl)methyl)morpholine-2-carboxylic acid]	54.5
CCOC(=O)C1=C(CN2CC(C)(C)OC[C@H]2C(=O)O)NC(c2nccs2)=NC1c1ccc(Cl)cc1Cl (stereo partly drawn) [Example 21, (3S)-4-((6-(2,4-dichlorophenyl)-5-(ethoxycarbonyl)-2-(thiazol-2-yl)-3,6-dihydropyrimidin-4-yl)methyl)-6,6-dimethylmorpholine-3-carboxylic acid]	51.2
CCOC(=O)C1=C(CN2CC(C)(C)OC[C@H]2C(=O)O)NC(c2nccs2)=NC1c1ccc(F)cc1Cl (stereo partly drawn) [Example 23, (3S)-4-((6-(2-chloro-4-fluorophenyl)-5-(ethoxycarbonyl)-2-(thiazol-2-yl)-3,6-dihydropyrimidin-4-yl)methyl)-6,6-dimethylmorpholine-3-carboxylic acid]	45
CCOC(=O)C1=C(CN2CC(C)(C)OC[C@H]2C(=O)OC)NC(c2nccs2)=NC1c1ccc(Cl)cc1Cl (stereo partly drawn) [Example 24, Methyl (3S)-4-((6-(2,4-dichlorophenyl)-5-(ethoxycarbonyl)-2-(thiazol-2-yl)-3,6-dihydropyrimidin-4-yl)methyl)-6,6-dimethylmorpholine-3-carboxylate]	56.1
CCOC(=O)C1=C(CN2CCOCC2C(N)=O)NC(c2nccs2)=NC1c1ccc(F)cc1Br (centres unmarked) [Example 25, Ethyl 4-(2-bromo-4-fluorophenyl)-6-((3-carbamoylmorpholino)methyl)-2-(thiazol-2-yl)-1,4-dihydropyrimidine-5-carboxylate]	91.9
CCOC(=O)C1=C(CN2CCOCC2C(N)=O)NC(c2nccs2)=NC1c1ccc(F)cc1Cl (centres unmarked) [Example 26, Ethyl 6-((3-carbamoylmorpholino)methyl)-4-(2-chloro-4-fluorophenyl)-2-(thiazol-2-yl)-1,4-dihydropyrimidine-5-carboxylate]	96
CCOC(=O)C1=C(CN2CCOCC2C(N)=O)NC(c2nccs2)=NC1c1ccc(Cl)cc1Cl (centres unmarked) [Example 27, Ethyl 6-((3-carbamoylmorpholino)methyl)-4-(2,4-dichlorophenyl)-2-(thiazol-2-yl)-1,4-dihydropyrimidine-5-carboxylate]	91.9
CCOC(=O)C1=C(CN2CCOC[C@@H]2CO)NC(c2nccs2)=NC1c1ccc(F)cc1Br (stereo partly drawn) [Example 40, Ethyl 4-(2-bromo-4-fluorophenyl)-6-(((S)-3-(hydroxymethyl)morpholino)methyl)-2-(thiazol-2-yl)-1,4-dihydropyrimidine-5-carboxylate]	95
CCOC(=O)C1=C(CN2CCOC[C@H]2COC(=O)[C@@H](N)C(C)C)NC(c2nccs2)=NC1c1ccc(F)cc1Br (stereo partly drawn) [Example 49, Ethyl 6-(((S)-3-((((S)-2-amino-3-methylbutanoyl)oxy)methyl)morpholino)methyl)-4-(2-bromo-4-fluorophenyl)-2-(thiazol-2-yl)-1,4-dihydropyrimidine-5-carboxylate]	96.2
CCOC(=O)C1=C(CN2CCOC[C@H]2C(=O)NO)NC(c2nccs2)=NC1c1ccc(F)cc1Br (stereo partly drawn) [Example 52, Ethyl 4-(2-bromo-4-fluorophenyl)-6-(((S)-3-(hydroxycarbamoyl)morpholino)methyl)-2-(thiazol-2-yl)-1,4-dihydropyrimidine-5-carboxylate]	89.5
CCOC(=O)C1=C(CN2CCOC[C@H]2C(=O)NOC)NC(c2nccs2)=NC1c1ccc(F)cc1Br (stereo partly drawn) [Example 53, Ethyl 4-(2-bromo-4-fluorophenyl)-6-(((S)-3-(methoxycarbamoyl)morpholino)methyl)-2-(thiazol-2-yl)-1,4-dihydropyrimidine-5-carboxylate]	92.6
CCOC(=O)C1=C(CN2CCOC[C@H]2C(=O)NCCO)NC(c2nccs2)=NC1c1ccc(F)cc1Br (stereo partly drawn) [Example 54, Ethyl 4-(2-bromo-4-fluorophenyl)-6-(((S)-3-((2-hydroxyethyl)carbamoyl)morpholino)methyl)-2-(thiazol-2-yl)-1,4-dihydropyrimidine-5-carboxylate]	91

same assay, conditions: Hepatitis B virus, HepG2.2.15, 168 h, read-out: HBV (% Inh.) (500 nmol)

SMILES	inhibition at 0.5 µM [%]
CCOC(=O)C1=C(CN2CCOCC2C(=O)O)NC(c2nccs2)=NC1c1ccc(Cl)cc1Cl (centres unmarked) [Example 5, 4-((6-(2,4-dichlorophenyl)-5-(ethoxycarbonyl)-2-(thiazol-2-yl)-3,6-dihydropyrimidin-4-yl)methyl)morpholine-3-carboxylic acid]	95
CCOC(=O)C1=C(CN2CCOC(C(=O)O)C2)NC(c2nccs2)=NC1c1ccc(F)cc1Br (centres unmarked) [Example 9, 4-((6-(2-bromo-4-fluorophenyl)-5-(ethoxycarbonyl)-2-(thiazol-2-yl)-3,6-dihydropyrimidin-4-yl)methyl)morpholine-2-carboxylic acid]	93.1
CCOC(=O)C1=C(CN2CCO[C@H](C)[C@H]2C(=O)O)NC(c2nccs2)=NC1c1ccc(F)cc1Br (stereo partly drawn) [Example 34, (2R,3S)-4-((6-(2-bromo-4-fluorophenyl)-5-(ethoxycarbonyl)-2-(thiazol-2-yl)-3,6-dihydropyrimidin-4-yl)methyl)-2-methylmorpholine-3-carboxylic acid]	94.3
CCOC(=O)C1=C(CN2CCOC[C@@H]2CO)NC(c2nccs2)=NC1c1ccc(Cl)cc1Cl (stereo partly drawn) [Example 42, Ethyl 4-(2,4-dichlorophenyl)-6-(((S)-3-(hydroxymethyl)morpholino)methyl)-2-(thiazol-2-yl)-1,4-dihydropyrimidine-5-carboxylate]	91.9
CCOC(=O)C1=C(CN2CCOCC2C(=O)OC)NC(c2nccs2)=NC1c1ccc(F)cc1Br (centres unmarked) [Example 51, Methyl 4-((6-(2-bromo-4-fluorophenyl)-5-(ethoxycarbonyl)-2-(thiazol-2-yl)-3,6-dihydropyrimidin-4-yl)methyl)morpholine-3-carboxylate]	91.3
